Reference: patent US10548318B2, “N-(tetrazol-5-yl)- and N-(triazol-5-yl)arylcarboxamide derivatives with herbicidal action” (Bayer CropScience Aktiengesellschaft, priority 2015, dated 2020)

Columns and labels:
Assay type in all cases: in vivo
Amaranthus retroflexus = test: Pre-emergence herbicidal action against harmful plants; details: 504 h, application rate 320 g/ha, visual scoring after 3 weeks vs untreated controls, read-out: herbicidal activity in percent against Amaranthus retroflexus
Description: (§1) Seeds of monocotyledonous and dicotyledonous weed plants and crop plants are laid out in wood-fiber pots in sandy loam and covered with soil. The compounds of the invention, formulated in the form of wettable powders (WP) or as emulsion concentrates (EC), are then applied to the surface of the covering soil in the form of an aqueous suspension or emulsion at a water application rate equating to 600 to 800 I/ha, with addition of 0.2% wetting agent. After the treatment, the pots are placed in a greenhouse and kept under good growth conditions for the trial plants. The damage to the test plants is scored visually after a test period of 3 weeks by comparison with untreated controls (herbicidal activity in percent (%): 100% activity=the plants have died, 0% activity=like control plants). Here, for example, the compounds Nos. 1-384, 1-390, 3-384, 5-384, 19-384, 9-390, 21-384, 23-384 and 28-390, at an application rate of 320 g/ha, each show an activity of at least 80% against Stellaria media and Amaranthus retroflexus.

Stellaria media [1] = test: as above; details: 504 h, application rate 320 g/ha, visual scoring after 3 weeks vs untreated controls, read-out: herbicidal activity in percent against Stellaria media
Description: as §1

Stellaria media [2] = test: Post-emergence herbicidal action against harmful plants; details: 504 h, application rate 80 g/ha, visual assessment after about 3 weeks vs untreated controls, read-out: herbicidal action in percent against Stellaria media
Description: (§2) Seeds of monocotyledonous and dicotyledonous weed and crop plants are laid out in sandy loam soil in wood-fiber pots, covered with soil and cultivated in a greenhouse under good growth conditions. 2 to 3 weeks after sowing, the test plants are treated at the one-leaf stage. The compounds of the invention, formulated in the form of wettable powders (WP) or as emulsion concentrates (EC), are then sprayed onto the green parts of the plants in the form of an aqueous suspension or emulsion at a water application rate equating to 600 to 800 I/ha, with addition of 0.2% wetting agent. After the test plants have been left to stand in the greenhouse under optimal growth conditions for about 3 weeks, the action of the preparations is assessed visually in comparison to untreated controls (herbicidal action in percent (%): 100% activity=the plants have died, 0% activity=like control plants). Here, for example, the compounds Nos. 1-384, 1-390, 3-384, 5-384, 19-384, 9-390, 21-384, 23-384, 28-390 and 32-384, at an application rate of 80 g/ha, each show an activity of at least 80% against Stellaria media and Veronica persica.

Veronica persica = test: as above; details: 504 h, application rate 80 g/ha, visual assessment after about 3 weeks vs untreated controls, read-out: herbicidal action in percent against Veronica persica
Description: as §2

[3] = system: Polygonum convolvulus (POLCO); test: Comparative experiment in pre-emergence; details: dosage 320 g/ha
Description: as §1
For comparative purposes, the herbicidal activity of some compounds according to the invention and the most structurally similar compounds known from the prior art were tested.

Row | SMILES | pest or weed control at 320 g/ha (Amaranthus retroflexus) [%] | pest or weed control at 320 g/ha (Stellaria media [1]) [%] | pest or weed control at 80 g/ha (Stellaria media [2]) [%] | pest or weed control at 80 g/ha (Veronica persica) [%] | Herbicidal activity against POLCO [3] [%]
1 | CSc1c(C(F)(F)F)ccc(C(=O)N=c2n(C)nnn2C(C)OC(=O)OC2CCCCC2)c1Cl (stereo not shown) [No. 5-384, 1-(5-{[2-chloro-3-(methylsulfanyl)-4-(trifluoromethyl)benzoyl]imino}-4-methyl-4,5-dihydro-1H-tetrazol-1-yl)ethyl cyclohexyl carbonate] | ≥ 80 | ≥ 80 | ≥ 80 | ≥ 80 | –
2 | CCOC(=O)OC(C)N(C(=O)c1ccc(C)c(S(C)(=O)=O)c1Cl)c1nnnn1C (stereo not shown) [No. 28-390, 1-{[2-chloro-4-methyl-3-(methylsulfonyl)benzoyl](1-methyl-1H-tetrazol-5-yl)amino}ethyl ethyl carbonate] | ≥ 80 | ≥ 80 | ≥ 80 | ≥ 80 | 90
3 | COC(=O)OC(C)OC(=Nc1nnnn1C)c1ccc(C(F)(F)F)c(SC)c1Cl (stereo not shown) [No. 21-384, 1-[(Methoxycarbonyl)oxy]ethyl 2-chloro-3-(methylsulfanyl)-N-(1-methyl-1H-tetrazol-5-yl)-4-(trifluoromethyl)benzenecarboximidate] | ≥ 80 | ≥ 80 | ≥ 80 | ≥ 80 | 100
4 | COC(=O)OC(C)n1nnn(C)c1=NC(=O)c1ccc(C(F)(F)F)c(SC)c1Cl (stereo not shown) [No. 3-384, 1-(5-{[2-chloro-3-(methylsulfanyl)-4-(trifluoromethyl)benzoyl]imino}-4-methyl-4,5-dihydro-1H-tetrazol-1-yl)ethyl methyl carbonate] | ≥ 80 | ≥ 80 | ≥ 80 | ≥ 80 | –
5 | CCOC(=O)OC(C)OC(=Nc1nnnn1C)c1ccc(C(F)(F)F)c(SC)c1Cl (stereo not shown) [No. 19-384, 1-[(ethoxycarbonyl)oxy]ethyl 2-chloro-3-(methylsulfanyl)-N-(1-methyl-1H-tetrazol-5-yl)-4-(trifluoromethyl)benzenecarboximidate] | ≥ 80 | ≥ 80 | ≥ 80 | ≥ 80 | –
6 | CSc1c(C(F)(F)F)ccc(C(=Nc2nnnn2C)OC(C)OC(=O)OC2CCCCC2)c1Cl (stereo not shown) [No. 23-384, 1-{[(cyclohexyloxy)carbonyl]oxy}ethyl 2-chloro-3-(methylsulfanyl)-N-(1-methyl-1H-tetrazol-5-yl)-4-(trifluoromethyl)benzenecarboximidate] | ≥ 80 | ≥ 80 | ≥ 80 | ≥ 80 | 90
7 | CCOC(=O)OC(C)OC(=Nc1nnnn1C)c1ccc(C)c(S(C)(=O)=O)c1Cl (stereo not shown) [No. 19-390, 1-[(ethoxycarbonyl)oxy]ethyl 2-chloro-4-methyl-3-(methylsulfonyl)-N-(1-methyl-1H-tetrazol-5-yl)benzenecarboximidate] | – | – | – | – | 100
8 | CCOC(=O)OC(C)n1nnn(C)c1=NC(=O)c1ccc(C(F)(F)F)c(SC)c1Cl (stereo not shown) [No. 1-384, 1-(5-{[2-chloro-3-(methylsulfanyl)-4-(trifluoromethyl)benzoyl]imino}-4-methyl-4,5-dihydro-1H-tetrazol-1-yl)ethyl ethyl carbonate] | ≥ 80 | ≥ 80 | ≥ 80 | ≥ 80 | –
9 | CCOC(=O)OC(C)n1nnn(C)c1=NC(=O)c1ccc(C)c(S(C)(=O)=O)c1Cl (stereo not shown) [No. 1-390, 1-(5-{[2-chloro-4-methyl-3-(methylsulfonyl)benzoyl]imino}-4-methyl-4,5-dihydro-1H-tetrazol-1-yl)ethyl ethyl carbonate] | ≥ 80 | ≥ 80 | ≥ 80 | ≥ 80 | 100
